Source: patent US11866430B2, “Naphthyridinone compounds useful as T cell activators” (priority 2018, dated 2024)

Assays:
human DGKζ [1] = biological target: T1, human DGKζ (Homo sapiens (Human), UniProt Q13574); assay: DGKζ assay (detergent/lipid micelle substrate); assay type: biochemical
Procedure, shortened: (§1)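 Enzymes were baculovirus/Sf9 full-length human DGKα or DGKζ with His tag. The substrate was PS/DAG in octyl glucoside micelles, in MOPS pH 7.5 buffer with NaCl, MgCl2, CaCl2 and DTT.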

[2] = system: pre-activated CD4 T cells and Raji cells; assay: Raji CD4 T Cell IL2 Assay; assay type: cell-based; settings: Homo sapiens, Raji
human DGKζ [3] = biological target: T1, human DGKζ; assay: DGKζ LIPGLO assay (extruded liposome substrate); assay type: biochemical
Protocol: (§2) The DGKα and DGKζ reactions were performed using either extruded liposome (DGKα and DGKζ LIPGLO assays) or detergent/lipid micelle substrate (DGKα and DGKζ assays). The reactions were carried out in 50 mM MOPS pH 7.5, 100 mM NaCl, 10 mM MgCl2, 1 μM CaCl2, and 1 mM DTT (assay buffer). The reactions using a detergent/lipid micelle substrate also contained 50 mM octyl B-D-glucopyranoside.
(§3) A 5 mL enzyme/substrate solution at 2× final reaction concentration was prepared by combining 2.5 mL 4× enzyme solution (20 nM DGKα or DGKζ (prepared as described below) in assay buffer) and 2.5 mL of either 4× liposome or 4× detergent/lipid micelle solution (compositions described below) and incubated at room temperature for 10 minutes. Next, 1 μL 2× enzyme/substrate solution was added to wells containing the test compound and reactions were initiated with the addition of 1 μL 300 uM ATP. The reactions were allowed to proceed for 1 hr, after which 2 μL Glo Reagent (Promega V9101) was added and incubated for 40 minutes. Next, 4 μL Kinase Detection Reagent was added and incubated for 30 minutes. Luminescence was recorded using an EnVision microplate reader. […] The compounds were evaluated at 11 concentrations to determine IC50.
(§4) The PC, DAG, and PS were dissolved in chloroform, combined, and dried in vacuo to a thin film. The lipids were hydrated to 20 mM in 50 mM MOPS pH 7.5, 100 mM NaCl, 5 mM MgCl2, and were freeze-thawed five times. The lipid suspension was extruded through a 100 nm polycarbonate filter eleven times. […] The liposome preparation was stored at 4° C. for as long as four weeks.
Baculovirus amplification was achieved using infected Sf9 cells at 1:1500 virus/cell ratios, and grown for 65 hours at 27° C. post-transfection.
(§5) The expression scale up for each protein was carried out in the Cellbag 50 L WAVE-Bioreactor System 20/50 from GE Healthcare Bioscience. 12 L of 2×10^6 cells/mL Sf9 cells (Expression System, Davis, Calif.) grown in ESF921 insect medium (Expression System) were infected with virus stock at 1:200 virus/cell ratios, and grown for 66-68 hours at 27° C. post-infection. The infected cell culture was harvested by centrifugation at 2000 rpm for 20 min 4° C. in a SORVALL® RC12BP centrifuge. The cell pellets were stored at −70° C. until purification.
The cells were lysed using nitrogen cavitation method with a nitrogen bomb (Parr Instruments), and the lysates were clarified by centrifugation. […] The three steps column chromatography included nickel affinity resin capture (i.e. HisTrap FF crude, GE Healthcare), followed by size exclusion chromatography (i.e. HiLoad 26/600 Superdex 200 prep grade, GE Healthcare for DGK-alpha, and HiPrep 26/600 Sephacryl S 300_HR, GE Healthcare for DGK-zeta). The third step was ion exchange chromatography, and differed for the two isoforms. DGKα was polished using Q-Sepharose anion exchange chromatography (GE Healthcare). DGKζ was polished using SP Sepharose cation exchange chromatography (GE Healthcare). The proteins were delivered at concentrations of ≥2 mg/mL. The formulation buffers were identical for both proteins: 50 mM Hepes, pH 7.2, 500 mM NaCl, 10% v/v glycerol, 1 mM TCEP, and 0.5 mM EDTA.

human DGKα [4] = biological target: T2, human DGKα (Homo sapiens (Human), UniProt P23743); assay: biochemical; settings: detergent/lipid micelle substrate; read-out: DGKα IC50
T2 sequence (P23743 other isoform, or with tags, fused parts or gaps): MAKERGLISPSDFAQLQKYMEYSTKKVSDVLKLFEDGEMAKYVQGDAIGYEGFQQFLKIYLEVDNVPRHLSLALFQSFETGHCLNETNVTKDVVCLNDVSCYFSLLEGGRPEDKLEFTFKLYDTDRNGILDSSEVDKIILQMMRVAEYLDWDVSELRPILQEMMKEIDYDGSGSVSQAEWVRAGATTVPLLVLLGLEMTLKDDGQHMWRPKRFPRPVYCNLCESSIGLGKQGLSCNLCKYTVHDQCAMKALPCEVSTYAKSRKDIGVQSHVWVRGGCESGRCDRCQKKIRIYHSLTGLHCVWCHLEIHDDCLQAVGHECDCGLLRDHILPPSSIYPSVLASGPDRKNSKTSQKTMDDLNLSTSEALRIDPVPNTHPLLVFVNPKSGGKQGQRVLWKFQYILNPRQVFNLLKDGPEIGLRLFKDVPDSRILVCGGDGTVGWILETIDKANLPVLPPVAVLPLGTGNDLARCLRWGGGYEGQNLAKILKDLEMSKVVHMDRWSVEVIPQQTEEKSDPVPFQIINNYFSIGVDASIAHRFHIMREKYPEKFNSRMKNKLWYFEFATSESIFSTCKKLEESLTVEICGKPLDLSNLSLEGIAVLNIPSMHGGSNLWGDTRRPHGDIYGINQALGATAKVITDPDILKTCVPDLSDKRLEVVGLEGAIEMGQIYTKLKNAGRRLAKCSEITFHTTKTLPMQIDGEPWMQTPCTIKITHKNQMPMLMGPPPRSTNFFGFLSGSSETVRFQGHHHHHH
Procedure, shortened: as §1

human DGKα [5] = biological target: T2, human DGKα; assay: DGKα LIPGLO assay (extruded liposome substrate); assay type: biochemical
Protocol: as §2, with “B-D-glucopyranoside. […] The lipid substrate concentrations were […], 0.25 mM DAG, and 2.75 mM PC for the extruded liposome reactions.” for “B-D-glucopyranoside.”
as §3, with “The compound inhibition studies were carried out as follows: 50 nL droplets of each test compound (top concentration 10 mM with 11 point, 3-fold dilution series for each compound) solubilized in DMSO were transferred to wells of a white 1536 well plate (Corning 3725). A 5” for “A 5”
as §4
Human DGK-alpha-TVMV-His-pFBgate and human DCK-zeta-transcript variant-2-TVMV-His-pFBgate baculovirus samples were generated using the Bac-to-Bac baculovirus expression system (Invitrogen) according to the manufacturer's protocol. The DNA used for expression of DGK-alpha and DGK-zeta have SEQ ID NOs: 1 and 3, respectively. Baculovirus amplification was achieved using infected Sf9 cells at 1:1500 virus/cell ratios, and grown for 65 hours at 27° C. post-transfection.
as §5
Full length human DGKα and DGKζ, each expressed containing a TVMV-cleavable C-terminal Hexa-His tag sequence (SEQ ID NOs: 2 and 4, respectively) and produced as described above, were purified from Sf) baculovirus-infected insect cell paste. The cells were lysed using nitrogen cavitation method with a nitrogen bomb (Parr Instruments), and the lysates were clarified by centrifugation. […] The three steps column chromatography included nickel affinity resin capture (i.e. HisTrap FF crude, GE Healthcare), followed by size exclusion chromatography (i.e. HiLoad 26/600 Superdex 200 prep grade, GE Healthcare for DGK-alpha, and HiPrep 26/600 Sephacryl S 300_HR, GE Healthcare for DGK-zeta). The third step was ion exchange chromatography, and differed for the two isoforms.

[6] = detergent/lipid micelle substrate, read-out: DGKζ IC50
[7] = extruded liposome substrate, read-out: DGKζ LIPGLO IC50

T1 sequence (Q13574 other isoform, or with tags, fused parts or gaps): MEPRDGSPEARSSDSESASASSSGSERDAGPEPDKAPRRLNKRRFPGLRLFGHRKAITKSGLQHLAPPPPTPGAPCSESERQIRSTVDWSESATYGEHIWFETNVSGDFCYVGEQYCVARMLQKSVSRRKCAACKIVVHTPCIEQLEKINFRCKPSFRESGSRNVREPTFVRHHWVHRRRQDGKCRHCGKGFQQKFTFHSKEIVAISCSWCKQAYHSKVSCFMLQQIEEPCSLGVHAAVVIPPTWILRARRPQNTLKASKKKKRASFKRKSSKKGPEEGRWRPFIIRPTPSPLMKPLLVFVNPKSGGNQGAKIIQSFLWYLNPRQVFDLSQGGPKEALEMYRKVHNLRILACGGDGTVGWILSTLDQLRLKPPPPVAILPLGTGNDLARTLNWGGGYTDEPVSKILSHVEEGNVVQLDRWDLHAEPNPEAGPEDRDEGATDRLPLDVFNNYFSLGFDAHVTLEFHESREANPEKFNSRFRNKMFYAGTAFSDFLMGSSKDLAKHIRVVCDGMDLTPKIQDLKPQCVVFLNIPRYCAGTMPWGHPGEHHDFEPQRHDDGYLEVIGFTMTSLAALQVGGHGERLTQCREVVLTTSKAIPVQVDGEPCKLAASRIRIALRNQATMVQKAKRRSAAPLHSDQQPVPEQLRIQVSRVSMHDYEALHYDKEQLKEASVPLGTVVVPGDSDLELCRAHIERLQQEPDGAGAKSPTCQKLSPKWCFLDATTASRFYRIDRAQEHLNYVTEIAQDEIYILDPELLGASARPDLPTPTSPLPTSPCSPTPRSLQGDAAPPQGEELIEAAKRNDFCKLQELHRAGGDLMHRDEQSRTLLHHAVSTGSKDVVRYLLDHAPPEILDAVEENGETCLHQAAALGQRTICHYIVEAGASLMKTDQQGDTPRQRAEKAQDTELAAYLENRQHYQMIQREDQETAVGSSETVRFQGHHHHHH

| Structure (SMILES) | IC50 (human DGKζ [1]; [6]) [µM] | IC50 [2] [µM] | IC50 (human DGKζ [3]; [7]) [µM] | IC50 (human DGKα [4]) [µM] | IC50 (human DGKα [5]) [µM] | IC50 (human DGKζ [1]; DGKζ IC50, detergent/lipid micelle substrate) [µM] | IC50 (human DGKζ [3]; DGKζ LIPGLO IC50, extruded liposome substrate) [µM] |
| --- | --- | --- | --- | --- | --- | --- | --- |
| C#CCn1c(=O)c([N+](=O)[O-])c(N2CCN(C(c3ccc(F)cc3)c3ccccc3OC)CC2)c2nc(C#N)ccc21 (single isomer, unassigned) [Example 130, 8-(4-((4-fluorophenyl)(2-methoxyphenyl)methyl)piperazin-1-yl)-7-nitro-6-oxo-5-(prop-2-yn-1-yl)-5,6-dihydro-1,5-naphthyridine-2-carbonitrile] | 1.9 | 0.019 | 0.31 | 30 |  |  |  |
| CC(c1ccc(F)cc1)N1CCN(c2c(C#N)c(=O)n(CC3CC3)c3ccc(Br)nc23)CC1 (single isomer, unassigned) [Example 163, 6-bromo-1-(cyclopropylmethyl)-4-(4-(1-(4-fluorophenyl)ethyl)piperazin-1-yl)-2-oxo-1,2-dihydro-1,5-naphthyridine-3-carbonitrile] |  |  |  | > 240 | 110 | > 240 | 110 |
| Cn1c(=O)c([N+](=O)[O-])c(N2CCN(Cc3cccc4ccccc34)CC2)c2nc(Br)ccc21 [Example 55, 6-bromo-1-methyl-4-(4-(naphthalen-1-ylmethyl)piperazin-1-yl)-3-nitro-1,5-naphthyridin-2(1H)-one] |  | 0.038 | 1.8 |  | 0.19 |  |  |
| COc1ccc2c(n1)c(N1CCN(C(c3ccc(F)cc3)c3ccc(F)cc3)CC1)c(C#N)c(=O)n2C [Example 103, 4-(4-(bis(4-fluorophenyl)methyl)piperazin-1-yl)-6-methoxy-1-methyl-2-oxo-1,2-dihydro-1,5-naphthyridine-3-carbonitrile] |  | 0.4 | 0.99 |  | 6.1 |  |  |
| C#CCn1c(=O)c([N+](=O)[O-])c(N2CCN(C(c3ccccc3)c3ccccc3)CC2)c2ncccc21 [Example 165, 4-(4-benzhydrylpiperazin-1-yl)-3-nitro-1-(prop-2-yn-1-yl)-1,5-naphthyridin-2(1H)-one] | 92 |  | 4.1 | 3.4 | 2.8 |  |  |
| Cc1ccc2c(n1)c(N1CCN(C(c3ccc(F)cc3)C3CC3)CC1)c(C#N)c(=O)n2C (centres unmarked) [Example 250, 4-{4-[cyclopropyl(4-fluorophenyl)methyl]piperazin-1-yl}-1,6-dimethyl-2-oxo-1,2-dihydro-1,5-naphthyridine-3-carbonitrile] |  |  | > 240 |  | 5.1 |  |  |
| COc1ncccc1C(c1ccc(F)cc1)N1CCN(c2c(C#N)c(=O)n(C)c3ccc(C)nc23)CC1 (centres unmarked) [Example 254, 4-{4-[(4-fluorophenyl)(2-methoxypyridin-3-yl)methyl]piperazin-1-yl}-1,6-dimethyl-2-oxo-1,2-dihydro-1,5-naphthyridine-3-carbonitrile] |  |  | 16 |  | 1.7 |  |  |
| COc1cccnc1C(c1ccc(F)cc1)N1CCN(c2c(C#N)c(=O)n(C)c3ccc(C)nc23)CC1 (centres unmarked) [Example 255, 4-{4-[(4-fluorophenyl)(3-methoxypyridin-2-yl)methyl]piperazin-1-yl}-1,6-dimethyl-2-oxo-1,2-dihydro-1,5-naphthyridine-3-carbonitrile] |  |  | 21 |  | 1.4 |  |  |
| Cn1c(=O)c(C#N)c(N2CCN(Cc3ccc(Cl)cc3O)CC2)c2nc(Br)ccc21 [Example 266, 6-bromo-4-{4-[(4-chloro-2-hydroxyphenyl)methyl]piperazin-1-yl}-1-methyl-2-oxo-1,2-dihydro-1,5-naphthyridine-3-carbonitrile] | > 240 | 0.041 | 11 | 0.027 |  |  |  |
| Cn1c(=O)c(C#N)c(N2CCN(C(c3ccc(F)cc3)c3ccc(F)cc3)CC2)c2ncccc21 [Example 347, 4-{4-[bis(4-fluorophenyl)methyl]piperazin-1-yl}-1-methyl-2-oxo-1,2-dihydro-1,5-naphthyridine-3-carbonitrile] |  | 1.2 |  |  | 2.6 |  |  |
| Cn1c(=O)c(C#N)c(N2CCN(Cc3ccc(OC(F)(F)F)cc3O)CC2)c2nc(Cl)ccc21 [Example 381, 6-chloro-4-(4-{[2-hydroxy-4-(trifluoromethoxy)phenyl]methyl}piperazin-1-yl)-1-methyl-2-oxo-1,2-dihydro-1,5-naphthyridine-3-carbonitrile] | > 240 |  | 27 |  |  |  |  |
| Cc1ccc(C(c2ccccc2)N2CCN(c3c(C#N)c(=O)n(C)c4ccc(C#N)nc34)CC2)cc1 (centres unmarked) [Example 408, 5-methyl-8-{4-[(4-methylphenyl)(phenyl)methyl]piperazin-1-yl}-6-oxo-5,6-dihydro-1,5-naphthyridine-2,7-dicarbonitrile] |  |  | 1.1 |  | 9 |  |  |
| COc1cc(F)ccc1C(c1ccc(F)cc1OC)N1CCN(c2c(C#N)c(=O)n(C)c3ccc(C#N)nc23)CC1 [Example 409, 8-{4-[bis(4-fluoro-2-methoxyphenyl)methyl]piperazin-1-yl}-5-methyl-6-oxo-5,6-dihydro-1,5-naphthyridine-2,7-dicarbonitrile] |  |  | 0.95 |  | > 240 |  |  |
| Cc1ccc(C(c2ccccc2)N2CCN(c3c(C#N)c(=O)n(C)c4ccc(Br)nc34)CC2)cc1 (centres unmarked) [Example 431, 6-bromo-1-methyl-4-{4-[(4-methylphenyl)(phenyl)methyl]piperazin-1-yl}-2-oxo-1,2-dihydro-1,5-naphthyridine-3-carbonitrile] |  |  | 9 |  | 9 |  |  |
